Read-outs that look alike come from different tables or passages of the source.

The target in the test is T1, F508del (Homo sapiens, UniProt P13569, DEL508-508).
T1 construct: expressed in transfected cells
Nature of the test: Protocol 2: FRET membrane potential optical assay (VIPR), identification of correction compounds. Format: cell-based. In a few lines:
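FRET read-out (CC2-DMPE donor, DiSBAC2(3) voltage-sensitive acceptor) of membrane depolarization on VIPR II. Corrector candidates incubated 16 hrs at 37° C. with NIH3T3 cells expressing F508del; temperature correction at 27° C. as positive control; stimulation by 10 μM forskolin, 20 μM genistein, chloride-free gluconate bath.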

Where [1] appears, read: Table 3, compounds of Table 1 as modulators of CFTR activity, protocol not stated.
Setting [2] is: F508del CFTR modulator activity, compounds of Table 1, read-out: EC30.

T1 sequence (P13569 with tags, fused parts or gaps DEL508-508): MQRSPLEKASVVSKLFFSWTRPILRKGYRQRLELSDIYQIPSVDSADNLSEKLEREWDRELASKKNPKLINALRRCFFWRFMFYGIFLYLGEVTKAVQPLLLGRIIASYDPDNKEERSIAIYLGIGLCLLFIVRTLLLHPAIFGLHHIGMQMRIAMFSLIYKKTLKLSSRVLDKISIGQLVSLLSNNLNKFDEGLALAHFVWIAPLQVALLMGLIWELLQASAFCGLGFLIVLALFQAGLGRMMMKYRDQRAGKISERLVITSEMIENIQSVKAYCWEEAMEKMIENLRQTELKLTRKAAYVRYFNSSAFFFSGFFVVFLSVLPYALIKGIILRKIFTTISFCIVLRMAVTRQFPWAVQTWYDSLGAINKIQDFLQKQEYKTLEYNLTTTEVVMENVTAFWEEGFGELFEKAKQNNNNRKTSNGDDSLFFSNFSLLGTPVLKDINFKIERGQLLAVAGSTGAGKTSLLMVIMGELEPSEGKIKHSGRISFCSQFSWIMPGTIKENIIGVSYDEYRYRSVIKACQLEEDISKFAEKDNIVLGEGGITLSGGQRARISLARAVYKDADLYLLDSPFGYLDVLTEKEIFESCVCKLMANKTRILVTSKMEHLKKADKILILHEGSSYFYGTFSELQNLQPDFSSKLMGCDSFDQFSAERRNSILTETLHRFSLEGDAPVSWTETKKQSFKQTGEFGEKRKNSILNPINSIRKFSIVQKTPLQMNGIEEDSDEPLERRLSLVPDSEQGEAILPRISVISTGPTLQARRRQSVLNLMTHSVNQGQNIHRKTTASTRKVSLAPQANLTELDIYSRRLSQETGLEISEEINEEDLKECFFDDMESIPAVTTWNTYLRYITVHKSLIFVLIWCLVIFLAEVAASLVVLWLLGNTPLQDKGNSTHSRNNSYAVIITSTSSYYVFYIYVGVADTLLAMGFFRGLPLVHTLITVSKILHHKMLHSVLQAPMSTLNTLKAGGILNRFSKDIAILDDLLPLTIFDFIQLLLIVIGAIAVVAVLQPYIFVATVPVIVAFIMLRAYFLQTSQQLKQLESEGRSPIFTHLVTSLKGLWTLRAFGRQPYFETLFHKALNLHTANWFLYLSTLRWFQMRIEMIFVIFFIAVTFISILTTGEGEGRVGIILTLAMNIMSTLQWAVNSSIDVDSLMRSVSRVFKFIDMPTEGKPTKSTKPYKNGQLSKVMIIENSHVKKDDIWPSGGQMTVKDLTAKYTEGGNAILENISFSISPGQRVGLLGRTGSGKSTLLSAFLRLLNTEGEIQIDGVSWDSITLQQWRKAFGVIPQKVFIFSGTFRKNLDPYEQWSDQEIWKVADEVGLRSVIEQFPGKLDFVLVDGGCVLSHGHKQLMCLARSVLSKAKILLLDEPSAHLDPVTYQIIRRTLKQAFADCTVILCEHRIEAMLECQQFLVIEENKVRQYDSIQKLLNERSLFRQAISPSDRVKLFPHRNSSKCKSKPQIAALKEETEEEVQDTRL

The term EC30 denotes the concentration at which the effect reaches the 30% level. For `Cc1cccc(C)c1Cn1nc(C(C)(C)C)cc1C(=O)NS(=O)(=O)c1ccccc1N` [Compound 88, N-(2-aminophenyl)sulfonyl-5-tert-butyl-2-[(2,6-dimethylphenyl)methyl]pyrazole-3-carboxamide], the EC30 entry under setting [1] is “+++ (“+++” means <3 uM)”.
As for `Cc1cc(C)c(Oc2cc(C(C)(C)C)ccc2C(=O)NS(=O)(=O)c2cccc(N)c2)c(C)c1` [Compound 224, N-(3-aminophenyl)sulfonyl-4-tert-butyl-2-(2,4,6-trimethylphenoxy)benzamide], the EC30 result under setting [1] is “+++ (“+++” means <3 uM)”.
Take `CCOCCOc1ncc(-c2ccc(C(=O)NS(=O)(=O)c3cccnc3N)c(N3C[C@@H](C)CC3(C)C)n2)cc1C` [Compound 2497, N-[(2-amino-3-pyridyl)sulfonyl]-6-[6-(2-ethoxyethoxy)-5-methyl-3-pyridyl]-2-[(4S)-2,2,4-trimethylpyrrolidin-1-yl]pyridine-3-carboxamide]: the EC30 under setting [2] was under 3 µM.
Consider `Cc1cc(C)c(Oc2nc(C(C)(C)C)ccc2C(=O)NS(=O)(=O)c2ccc[nH]c2=O)c(C)c1` [Compound 51, 6-tert-butyl-N-[(2-oxo-1H-pyridin-3-yl)sulfonyl]-2-(2,4,6-trimethylphenoxy)pyridine-3-carboxamide], for which the EC30 entry under setting [1] is given as “+++ (“+++” means <3 uM)”.
In the case of `CCOc1ccccc1-c1cnc(N2CC(C)CC2(C)C)c(C(=O)NS(=O)(=O)c2cccc(N)n2)c1` (stereo not drawn) [Compound 2557, N-[(6-amino-2-pyridyl)sulfonyl]-5-(2-ethoxyphenyl)-2-(2,2,4-trimethylpyrrolidin-1-yl)pyridine-3-carboxamide], the concentration for an effect of 30% (EC30) under setting [2] was under 3 µM.
As to `Cc1c(Cn2nc(C(C)(C)C)cc2C(=O)NS(=O)(=O)c2cccc3ccn(C)c23)cccc1C(F)(F)F` [Compound 276, 5-tert-butyl-N-(1-methylindol-7-yl)sulfonyl-2-[[2-methyl-3-(trifluoromethyl)phenyl]methyl]pyrazole-3-carboxamide], under setting [1], the EC30 entry is “+++ (“+++” means <3 uM)”.
Take `Cc1cccc(N2CCN(c3cccc(S(=O)(=O)NC(=O)c4cccnc4N4CC(C)CC4(C)C)n3)CC2)n1` (stereo not drawn) [Compound 2285, N—[[6-[4-(6-methyl-2-pyridyl)piperazin-1-yl]-2-pyridyl]sulfonyl]-2-(2,2,4-trimethylpyrrolidin-1-yl)pyridine-3-carboxamide]: the EC30 under setting [2] was under 3 µM.
On the same count and under the same terms, with `CC1CN(c2ncccc2C(=O)NS(=O)(=O)c2cccc(OCC3OCc4ccccc4O3)n2)C(C)(C)C1` (stereo not drawn) [Compound 2627, N—[[6-(4H-1,3-benzodioxin-2-ylmethoxy)-2-pyridyl]sulfonyl]-2-(2,2,4-trimethylpyrrolidin-1-yl)pyridine-3-carboxamide] the figure was under 3 µM.
Take `CC(C)Oc1ccc(-c2ccc(C(=O)NS(=O)(=O)c3cccc(N)n3)c(N3CCC4(CCO4)CC3)n2)cn1` [Compound 729, N-[(6-amino-2-pyridyl)sulfonyl]-6-(6-isopropoxy-3-pyridyl)-2-(3-oxa-7-azaspiro[3.5]nonan-7-yl)pyridine-3-carboxamide]: under setting [1], the EC30 result is “++ (“++” means between 3 uM and 10 uM)”.
Same read-out and setting: with `Cc1cc(C)c(Oc2nc(C(C)(C)C)ccc2C(=O)NS(=O)(=O)c2c[nH]ccc2=O)c(C)c1` [Compound 107, 6-tert-butyl-N-[(4-oxo-1H-pyridin-3-yl)sulfonyl]-2-(2,4,6-trimethylphenoxy)pyridine-3-carboxamide] the entry was “+++ (“+++” means <3 uM)”.
As for `Cc1ccc2nc(N3C[C@@H](C)CC3(C)C)c(C(=O)NS(=O)(=O)c3cccc(N)n3)cc2c1` [Compound 2548, N-[(6-amino-2-pyridyl)sulfonyl]-6-methyl-2-[(4S)-2,2,4-trimethylpyrrolidin-1-yl]quinoline-3-carboxamide], the EC30 under setting [2] was under 3 µM.
As to `CC(C)COc1cc(F)cc(-c2ccc(C(=O)NS(=O)(=O)c3cccc4[nH]ccc34)c(N3CC(C)CC3(C)C)n2)c1` (stereo not drawn) [Compound 549, 6-(3-fluoro-5-isobutoxy-phenyl)-N-(1H-indol-4-ylsulfonyl)-2-(2,2,4-trimethylpyrrolidin-1-yl)pyridine-3-carboxamide], the EC30 entry under setting [1] is “+++ (“+++” means <3 uM)”.
In the case of `CC1CN(c2ncccc2C(=O)NS(=O)(=O)c2cccc(NC3CCCCCCC3)n2)C(C)(C)C1` (stereo not drawn) [Compound 2202, N—[[6-(cyclooctylamino)-2-pyridyl]sulfonyl]-2-(2,2,4-trimethylpyrrolidin-1-yl)pyridine-3-carboxamide], the concentration for an effect of 30% (EC30) under setting [2] is under 3 µM.
In the case of `CC(C)COc1cc(F)cc(-c2ccc(C(=O)NS(=O)(=O)c3cccc(N)n3)c(OC3CCC(C)CC3)n2)c1` (stereo not drawn) [Compound 438, N-[(6-amino-2-pyridyl)sulfonyl]-6-(3-fluoro-5-isobutoxy-phenyl)-2-(4-methylcyclohexoxy)pyridine-3-carboxamide], under setting [1], the concentration for an effect of 30% (EC30) result was “+++ (“+++” means <3 uM)”.
As for `C[C@@H]1CN(c2nc(-c3ccccc3OC(F)(F)F)ccc2C(=O)NS(=O)(=O)N2CC[C@H](N)C2)C(C)(C)C1` [Compound 2070, N-[(3S)-3-aminopyrrolidin-1-yl]sulfonyl-6-[2-(trifluoromethoxy)phenyl]-2-[(4S)-2,2,4-trimethylpyrrolidin-1-yl]pyridine-3-carboxamide], the concentration for an effect of 30% (EC30) under setting [2] was under 3 µM.
Same read-out and setting: with `CC1CN(c2ncccc2C(=O)NS(=O)(=O)c2cccc(OCc3ccccc3C(F)(F)F)n2)C(C)(C)C1` (stereo not drawn) [Compound 2261, N—[[6-[[2-(trifluoromethyl)phenyl]methoxy]-2-pyridyl]sulfonyl]-2-(2,2,4-trimethylpyrrolidin-1-yl)pyridine-3-carboxamide] the figure was under 3 µM; with `CC1CN(c2ncccc2C(=O)NS(=O)(=O)c2cccc(Nc3cccc(C(F)(F)F)c3)n2)C(C)(C)C1` (stereo not drawn) [Compound 2381, N—[[6-[3-(trifluoromethyl)anilino]-2-pyridyl]sulfonyl]-2-(2,2,4-trimethylpyrrolidin-1-yl)pyridine-3-carboxamide], under 3 µM.
As for `Cc1cc(C)c(Oc2nc(C3CC3)cc(C(F)(F)F)c2C(=O)NS(=O)(=O)c2cccc(N)n2)c(C)c1` [Compound 54, N-[(6-amino-2-pyridyl)sulfonyl]-6-cyclopropyl-4-(trifluoromethyl)-2-(2,4,6-trimethylphenoxy)pyridine-3-carboxamide], under setting [1], the concentration for an effect of 30% (EC30) entry is “++ (“++” means between 3 uM and 10 uM)”.
Same read-out and setting: with `COc1ccc(-c2cc(C(=O)NS(=O)(=O)c3ccccc3)n(Cc3c(C)cccc3C)n2)cc1` [Compound 49, N-(benzenesulfonyl)-2-[(2,6-dimethylphenyl)methyl]-5-(4-methoxyphenyl)pyrazole-3-carboxamide] the entry was “+++ (“+++” means <3 uM)”; with `Cc1cccc(C)c1Cn1nc(C(C)(C)C)cc1C(=O)NS(=O)(=O)c1ccccc1` [Compound 257, N-(benzenesulfonyl)-5-tert-butyl-2-[(2,6-dimethylphenyl)methyl]pyrazole-3-carboxamide], “+++ (“+++” means <3 uM)”.
With `COc1ncc(-c2ccc(C(=O)NS(=O)(=O)c3cccnc3N)c(N3C[C@@H](C)CC3(C)C)n2)cc1C` [Compound 2564, N-[(2-amino-3-pyridyl)sulfonyl]-6-(6-methoxy-5-methyl-3-pyridyl)-2-[(4S)-2,2,4-trimethylpyrrolidin-1-yl]pyridine-3-carboxamide], the EC30 under setting [2] is under 3 µM.
Still for that read-out and setting: with `CC1CN(c2ncccc2C(=O)NS(=O)(=O)c2cccc(N3CCc4ccccc43)n2)C(C)(C)C1` (stereo not drawn) [Compound 2255, N-[(6-indolin-1-yl-2-pyridyl)sulfonyl]-2-(2,2,4-trimethylpyrrolidin-1-yl)pyridine-3-carboxamide] the figure was under 3 µM; with `CCOc1cc(F)cc(-c2ccc(C(=O)NS(=O)(=O)c3ccc[nH]c3=O)c(N3C[C@@H](C)CC3(C)C)n2)c1` [Compound 2278, 6-(3-ethoxy-5-fluoro-phenyl)-N-[(2-oxo-1H-pyridin-3-yl)sulfonyl]-2-[(4S)-2,2,4-trimethylpyrrolidin-1-yl]pyridine-3-carboxamide], under 3 µM.
On the same count and under the same terms, with `CC1CN(c2ncccc2C(=O)NS(=O)(=O)c2cccc(Oc3ccc(-n4cccc4)cc3)n2)C(C)(C)C1` (stereo not drawn) [Compound 2563, N—[[6-(4-pyrrol-1-ylphenoxy)-2-pyridyl]sulfonyl]-2-(2,2,4-trimethylpyrrolidin-1-yl)pyridine-3-carboxamide] the figure was under 3 µM; with `CC1CN(c2ncccc2C(=O)NS(=O)(=O)c2cccc(Oc3cccc(C(F)(F)F)c3)n2)C(C)(C)C1` (stereo not drawn) [Compound 2718], under 3 µM.
As to `CC(C)COc1cc(F)cc(-c2ccc(C(=O)NS(=O)(=O)c3cccc(N)n3)c(N3CCCC3)n2)c1` [Compound 592, N-[(6-amino-2-pyridyl)sulfonyl]-6-(3-fluoro-5-isobutoxy-phenyl)-2-pyrrolidin-1-yl-pyridine-3-carboxamide], the 30% effect concentration (EC30) entry under setting [1] is recorded as “+++ (“+++” means <3 uM)”.
Still for that read-out and setting: to `Cc1cc(C)c(Oc2nc(C(C)(C)C)cnc2C(=O)NS(=O)(=O)c2cccc(N)c2)c(C)c1` [Compound 141, N-(3-aminophenyl)sulfonyl-5-tert-butyl-3-(2,4,6-trimethylphenoxy)pyrazine-2-carboxamide] belongs “+++ (“+++” means <3 uM)”.
With `CCCOc1ccc(-c2cnc(N3CC(C)CC3(C)C)c(C(=O)NS(=O)(=O)c3cccc(N)n3)c2)cc1C` (stereo not drawn) [Compound 2095, N-[(6-amino-2-pyridyl)sulfonyl]-5-(3-methyl-4-propoxy-phenyl)-2-(2,2,4-trimethylpyrrolidin-1-yl)pyridine-3-carboxamide], under setting [2], the 30% effect concentration (EC30) is under 3 µM.
Still for that read-out and setting: to `CCOc1cc(C)cc(-c2ccc(C(=O)NS(=O)(=O)c3cccnc3N)c(N3C[C@@H](C)CC3(C)C)n2)n1` [Compound 2256, N-[(2-amino-3-pyridyl)sulfonyl]-6-(6-ethoxy-4-methyl-2-pyridyl)-2-[(4S)-2,2,4-trimethylpyrrolidin-1-yl]pyridine-3-carboxamide] belongs under 3 µM.
In the case of `Cc1cc(C)c(Oc2nc(NC(C)C)ccc2C(=O)NS(=O)(=O)c2cccc(N)n2)c(C)c1` [Compound 650, N-[(6-amino-2-pyridyl)sulfonyl]-6-(isopropylamino)-2-(2,4,6-trimethylphenoxy)pyridine-3-carboxamide], the EC30 result under setting [1] is “++ (“++” means between 3 uM and 10 uM)”.

Values taken from patent US10758534B2 (Vertex Pharmaceuticals Incorporated, priority 2014, dated 2020).
